Results taken from patent US20240024403A1, “Compositions and Methods for Managing Weight” (Unigen, Inc., priority 2012, published 2024).
Like-named read-outs stand apart in the source and are kept apart here.

How the values were obtained:
[1] = tested on: 3T3-L1 adipocytes; assay: Lipolysis (free glycerol released) in mature 3T3-L1 adipocytes; assay type: cell-based, Mouse; settings: 10 μM
Description: Isoproterenol (10 μM) was used as a positive control. The conditioned medium was recovered and free glycerol released was assayed by using a lipolysis assay kit (Sigma-Aldrich Inc., USA) following the manufacturer's instructions.

[2] = target: human cannabinoid CB2 receptor protein (Homo sapiens (Human), UniProt P34972); assay: CB2 receptor-ligand binding assay ([3H] WIN-55,212-2)
human cannabinoid CB2 receptor protein, sequence (P34972 whole entry): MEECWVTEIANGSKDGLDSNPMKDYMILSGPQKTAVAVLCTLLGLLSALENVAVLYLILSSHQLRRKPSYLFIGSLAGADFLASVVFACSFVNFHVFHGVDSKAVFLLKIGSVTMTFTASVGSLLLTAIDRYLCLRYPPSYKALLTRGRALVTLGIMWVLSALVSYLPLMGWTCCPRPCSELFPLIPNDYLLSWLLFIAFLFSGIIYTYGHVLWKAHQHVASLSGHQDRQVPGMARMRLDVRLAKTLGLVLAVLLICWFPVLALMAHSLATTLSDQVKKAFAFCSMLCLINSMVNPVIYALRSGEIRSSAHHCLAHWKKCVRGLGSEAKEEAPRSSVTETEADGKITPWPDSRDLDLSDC
Description: Briefly, human cannabinoid CB2 receptor protein expressed in CHO-K1 cells were used in modified HEPES buffer (pH 7.0). A 30 μg aliquot of CB2-membrane was mixed with tritium labeled nonspecific CB1 agonist [3H] WIN-55,212-2 (2.4 nM) and test samples of Kuwanon G and Albanin G compounds, or just the nonspecific ligand R (+)-WIN-55,212-2 (10 μM) (positive control) were incubated in incubation buffer (20 mM HEPES (pH 7.0), 0.5 mg/ml BSA) for 90 minutes at 37° C. After incubation, the membranes were filtered and washed; the filters were then counted to determine the amount of radiolabeled [^3H] WIN-55,212-2 that was specifically bound to the CB2-membrane.

[3] = target: T1, human CB1 receptor (Homo sapiens (Human), UniProt P21554); assay: CB1 receptor binding assay ([3H] SR141716A); settings: for CB1 selectivity over CB2: from CB1 and CB2 IC50; for inhibition at 20 µg/mL: read-out: % Inhibition CB1-Binding
T1 sequence (P21554 whole entry): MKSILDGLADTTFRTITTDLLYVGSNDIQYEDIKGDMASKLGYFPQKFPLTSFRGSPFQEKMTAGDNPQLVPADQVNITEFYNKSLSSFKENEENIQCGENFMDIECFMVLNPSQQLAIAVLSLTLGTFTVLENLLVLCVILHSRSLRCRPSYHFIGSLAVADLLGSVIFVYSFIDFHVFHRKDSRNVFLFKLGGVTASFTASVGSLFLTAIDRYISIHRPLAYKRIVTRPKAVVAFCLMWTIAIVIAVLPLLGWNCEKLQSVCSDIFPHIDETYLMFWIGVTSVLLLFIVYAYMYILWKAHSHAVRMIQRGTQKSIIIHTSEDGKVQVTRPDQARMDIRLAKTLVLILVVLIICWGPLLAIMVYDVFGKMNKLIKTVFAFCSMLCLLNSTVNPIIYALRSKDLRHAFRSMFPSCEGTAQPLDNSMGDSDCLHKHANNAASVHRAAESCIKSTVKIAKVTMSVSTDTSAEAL
Description: Cannabinoid receptor binding assays were used as a primary screening method to identify CB1 antagonist compounds. […] Briefly, human cannabinoid receptor protein bound to Chem-1 membrane was used in modified HEPES (pH 7.4) buffer. A 10 microgram (μg) aliquot of Chem-1 membrane, radioactively labeled [^3H] […] After incubation, the membranes were filtered and washed four times and then the filters were counted to determine amount of [^3H]

[4] = tested on: Rice α-glucosidase; assay: Rice α-Glucosidase inhibition assay; assay type: biochemical; settings: 100 μg/ml
Description: Inhibition of rice α-glucosidase activity by each of the purified Kuwanon G and Albanin G compounds was measured as follows. […] The reaction was initiated with addition of 2 mM p-nitrophenyl a-D-glucopyanoside, incubated for another 90 minute at 70° C., and then terminated by adding of 1 M sodium carbonate. The end-product p-nitrophenol was measured by spectrophotometer.

[5] = target: T1, human CB1 receptor; assay: CB1 Antagonist Effect GPCR Functional Assay (cAMP); assay type: cell-based; settings: for inhibition at 100 µM: read-out: CB1 Antagonist Inhibition
Description: (§1) In vitro efficacy and CB1 binding specificity of compounds isolated from Morus alba and Milicia excelsa were tested in the human CB1 receptor binding assay, and the agonist or antagonist function of the compounds was determined by measuring the effect on cAMP or agonist-induced cAMP modulation.
(§2) Following 10 min incubation at 37° C., the cells are lysed and the fluorescence acceptor (D2-labeled cAMP) and fluorescence donor (anti-cAMP antibody labeled with europium cryptate) are added. After 60 min at room temperature, the fluorescence transfer is measured at λex=337 nm and λem=620 nm and 665 nm using a microplate reader (Rubystar, BMG). The cAMP concentration is determined by dividing the signal measured at 665 nm by that measured at 620 nm (ratio).

[6] = target: T1, human CB1 receptor; assay: CB1 Agonist Effect GPCR Functional Assay (cAMP); assay type: cell-based
Description: as §1
as §2, with “Following a” for “Following”, “10 minute” for “10 min”, “cryptate) were” for “cryptate) are”

[7] = DPPH anti-oxidation test
Description: The DPPH radical has a violet color in solution, but changes to light yellow or colorless when reduced to DPPH-H (2,2-diphenyl-1-picrylhydrazin) after reaction with free radicals. The color change can be followed spectrophotometrically at 517 nm to determine the anti-oxidative potential of a composition. Briefly, a 0.2 mM solution of DPPH in DMSO was mixed with each test sample at concentrations of 20, 40, 80 and 160 μg/ml. Ascorbic acid was used as a positive control. After a 30 minute incubation in the dark, the color change (i.e., decrease in absorbance) was measured at 517 nm in a spectrophotometer.

[8] = tested on: 3T3-L1 cells; assay: Intracellular triglyceride accumulation in differentiating 3T3-L1 cells; assay type: cell-based, Mouse; settings: 10 ng/ml; 8 days differentiation
Description: The cells were washed with PBS, scraped with homogenizing solution, residual cell lysate was centrifuged at 3,000 g for 5 minutes to remove fat layers, and the supernatants were assayed for triglyceride levels.

[9] = tested on: 3T3-L1 adipocytes; assay: Lipid accumulation in 3T3-L1 adipocytes (Oil-Red O); assay type: cell-based, Mouse; settings: 10 ng/ml
Description: Briefly, 3T3 L1cells (American Type Culture Collection) were cultured in Dulbecco's modified Eagle's medium (DMEM) (GIBCO) containing 10% bovine calf serum until confluent. Two days post-confluence (DO), cells were stimulated to differentiate with DMEM containing 10% fetal bovine serum (FBS), 5 μg/ml insulin, 0.5 mM 3-isobutyl-1-methylxanthine (IBMX) and 1 μM dexamethasone for two days (D2).
Differentiated cells were then maintained in 10% FBS/DMEM medium with 5 μg/ml insulin for another two days (D4), followed by culturing with 10% FBS/DMEM medium for four days (D8).
To examine lipid accumulation, four different concentrations of Composition 3 (40, 80, 120 and 160 ug/ml) were tested with medium from Days 0 to 8 of adipogenesis. The culture medium was replaced every two days, and the cells were stained with Oil-Red O on Day 8.

**Q.** Which “Lipolysis, % of Control” value ([1]; 24 hrs) does the source give for CC(C)NCC(O)c1ccc(O)c(O)c1 (centres unmarked) [Isoproterenol] here?
**A.** The value was 464.2 % of Control.

**Q.** What about the “Lipolysis, % of Control” value ([1]; 48 hrs) of the same molecule?
**A.** Its value is 525.0 % of Control.

**Q.** For CC(C)=CCc1c(-c2ccc(O)cc2O)oc2c(C3C=C(C)CC(c4ccc(O)cc4O)C3C(=O)c3ccc(O)cc3O)c(O)cc(O)c2c1=O (centres unmarked) [Kuwanon G], which IC50 [2] is on record?
**A.** Its IC50 is 28.9 µM.

**Q.** What about the IC50 [3] of the same molecule?
**A.** The IC50 was 10.1 µM.

**Q.** What about the “% Inhibition CB1-Binding” value ([3]; 20 μg/ml) of the same molecule?
**A.** Its value is 92%.

**Q.** And the “CB1 selectivity over CB2” value [3]?
**A.** Its value is “CB1 selective inhibitors”.

**Q.** What about the “% Inhibition Rice α-glucosidase” value [4] of the same molecule?
**A.** The value was −22%.

**Q.** What about the “CB1 Antagonist Inhibition” value ([5]; at 100 μM) of the same molecule?
**A.** The value was −1%.

**Q.** What about the “CB1 receptor functional behavior (agonist)” value [6] of the same molecule?
**A.** The value was “agonist-like behavior instead of antagonist”.

**Q.** And the EC50 [6]?
**A.** Its EC50 is 85 µM.

**Q.** For CC(C)=CCc1c(O)ccc(C(=O)C2C(c3c(O)cc(O)c4c(=O)c(CC=C(C)C)c(-c5ccc(O)cc5O)oc34)C=C(C)CC2c2ccc(O)cc2O)c1O (centres unmarked) [Albanin G], which IC50 [2] is on record?
**A.** The IC50 was 6.6 µM.

**Q.** What about the IC50 [3] of the same molecule?
**A.** Its IC50 is 0.1 µM.

**Q.** What about the inhibition at 20 µg/mL ([3]; 20 μg/ml) of the same molecule?
**A.** Its inhibition at 20 µg/mL is 96%.

**Q.** And the “CB1 selectivity over CB2” value [3]?
**A.** Its value is “CB1 selective inhibitors”.

**Q.** And the “% Inhibition Rice α-glucosidase” value [4]?
**A.** Its value is 66%.

**Q.** And the “CB1 receptor functional behavior (antagonist)” value [5]?
**A.** Its value is “modest antagonist-like activity”.

**Q.** And the inhibition at 100 µM ([5]; at 100 μM)?
**A.** The inhibition at 100 µM was 17%.

**Q.** What does the source list for O=C1O[C@H]([C@@H](O)CO)C(O)=C1O [Ascorbic acid]?
**A.** DPPH Inhibition (%) ([7]; 20 μg/ml): 50.8 ± 0.83%; DPPH Inhibition (%) ([7]; 40 μg/ml): 53.6 ± 1.72%; DPPH Inhibition (%) ([7]; 80 μg/ml): 64.2 ± 0.86%; DPPH Inhibition (%) ([7]; 160 μg/ml): 76.6 ± 0.30%

**Q.** For TNF-α, which “Inhibition (%) of intracellular triglyceride accumulation” value [8] is on record?
**A.** The value was 19.4%.

**Q.** And the “Inhibition (%) of lipid accumulation” value ([9]; Table 159, Oil-Red O Day 8)?
**A.** Its value is 61.0%.

**Q.** And the “Inhibition (%) of lipid accumulation” value ([9]; Table 160)?
**A.** The value was 68.9%.

**Q.** And the “Inhibition (%) of lipid accumulation” value ([9]; Table 161)?
**A.** Its value is 74.1 ± 6.06%.

**Q.** Which results are given for CC(C)=CCC12Oc3c(c(O)cc(O)c3C3C=C(C)CC(c4ccc(O)cc4O)C3C(=O)c3ccc(O)cc3O)C(=O)C1(O)Oc1cc(O)ccc12 (centres unmarked) [Sanggenon, Sanggenon C/D/]?
**A.** IC50 [2]: 24 µM; IC50 [3]: 3.5 µM; CB1 selectivity over CB2 [3]: CB1 selectivity over the CB2 receptor protein; inhibition at 20 µg/mL [3]: 96%; inhibition at 100 µM [5]: -14%; CB1 receptor functional behavior (agonist) [6]: agonist-like behavior instead of antagonist; EC50 [6]: 31 µM
